Where two headings read alike, the source gives them in different places.
Legend:
SARS-CoV-2 nsp3-mac1 [1] = biological target: T1, SARS-CoV-2 nsp3-mac1 (Severe acute respiratory syndrome coronavirus 2, UniProt P0DTD1); assay: biochemical; set-up: SARS-CoV-2 nsp3 macrodomain TR-FRET single point, per cent inhibition, n=2
SARS-CoV-2 nsp3-mac1 [2] = biological target: T1, SARS-CoV-2 nsp3-mac1; assay: biochemical; format: biochemical; settings: SARS-CoV-2 nsp3 macrodomain TR-FRET single point, n=2
[3] = read-out: perc_inhibition_mean, batch_name=ASAP-0000258-001
[4] = read-out: perc_inhibition_mean, batch_name=ASAP-0000260-001
[5] = read-out: perc_inhibition_mean, batch_name=ASAP-0000261-001
[6] = read-out: perc_inhibition_mean, batch_name=ASAP-0000262-001
[7] = read-out: perc_inhibition_mean, batch_name=ASAP-0000263-001
[8] = read-out: perc_inhibition_mean, batch_name=ASAP-0000264-001
[9] = read-out: perc_inhibition_mean, batch_name=ASAP-0000265-001
[10] = read-out: perc_inhibition_mean, batch_name=ASAP-0000267-001
[11] = read-out: perc_inhibition_mean, batch_name=ASAP-0000268-001
[12] = read-out: perc_inhibition_mean, batch_name=ASAP-0000276-001
[13] = read-out: perc_inhibition_mean, batch_name=ASAP-0000277-001
[14] = read-out: perc_inhibition_mean, batch_name=ASAP-0000278-001
[15] = read-out: perc_inhibition_mean, batch_name=ASAP-0000279-001
[16] = read-out: perc_inhibition_mean, batch_name=ASAP-0000280-001
[17] = read-out: perc_inhibition_mean, batch_name=ASAP-0000281-001
[18] = read-out: perc_inhibition_mean, batch_name=ASAP-0000282-001
[19] = read-out: perc_inhibition_mean, batch_name=ASAP-0000283-001
[20] = read-out: perc_inhibition_mean, batch_name=ASAP-0000284-001

SMILES | perc_inhibition_mean (SARS-CoV-2 nsp3-mac1 [2]; concentration 50.0 uM) | perc_inhibition_mean (SARS-CoV-2 nsp3-mac1 [2]; concentration 100.0 uM) | perc_inhibition_mean (SARS-CoV-2 nsp3-mac1 [2]; concentration 49.75 uM) | perc_inhibition_mean (SARS-CoV-2 nsp3-mac1 [2]; concentration 99.5 uM) | also measured
O=c1[nH]cnc2[nH]cc(-c3ccoc3)c12 [ASAP-0000258] | -14.47% | -13.824% | – | – | inhibition at 50 µM (SARS-CoV-2 nsp3-mac1 [1]; [3]): -14.5%; inhibition at 100 µM (SARS-CoV-2 nsp3-mac1 [1]; [3]): -13.8%
Oc1cc(CNc2ncnc3[nH]cnc23)ccn1 [ASAP-0000260] | -0.821% | -3.73% | – | – | inhibition at 50 µM (SARS-CoV-2 nsp3-mac1 [1]; [4]): -0.821%; inhibition at 100 µM (SARS-CoV-2 nsp3-mac1 [1]; [4]): -3.73%
O=C(NCc1nc2cccnc2[nH]1)c1cnc2nc[nH]c(=O)c2c1 [ASAP-0000261] | -1.987% | 7.034% | – | – | inhibition at 50 µM (SARS-CoV-2 nsp3-mac1 [1]; [5]): -1.99%; inhibition at 100 µM (SARS-CoV-2 nsp3-mac1 [1]; [5]): 7.03%
c1cc(CNc2ncnc3nc[nH]c23)n2ncnc2c1 [ASAP-0000262] | 1.353% | 10.036% | – | – | inhibition at 50 µM (SARS-CoV-2 nsp3-mac1 [1]; [6]): 1.35%; inhibition at 100 µM (SARS-CoV-2 nsp3-mac1 [1]; [6]): 10%
Cc1[nH]c2ncnc(NCc3ccco3)c2c1C [ASAP-0000263] | 16.967% | 37.474% | – | – | inhibition at 50 µM (SARS-CoV-2 nsp3-mac1 [1]; [7]): 17%; inhibition at 100 µM (SARS-CoV-2 nsp3-mac1 [1]; [7]): 37.5%
Cc1nc(NC(=O)c2nccc3ccncc23)c2cc[nH]c2n1 [ASAP-0000264] | -5.834% | 2.611% | – | – | inhibition at 50 µM (SARS-CoV-2 nsp3-mac1 [1]; [8]): -5.83%; inhibition at 100 µM (SARS-CoV-2 nsp3-mac1 [1]; [8]): 2.61%
CCC(CC)(C(=O)Nc1nc(C)nc2[nH]ccc12)C(=O)OC(C)(C)C [ASAP-0000265] | -9.456% | -4.708% | – | – | inhibition at 50 µM (SARS-CoV-2 nsp3-mac1 [1]; [9]): -9.46%; inhibition at 100 µM (SARS-CoV-2 nsp3-mac1 [1]; [9]): -4.71%
O=C(Nc1cnc2[nH]ncc2c1)c1cccc(-c2noc(C(F)(F)F)n2)c1 [ASAP-0000267] | -0.675% | -1.621% | – | – | inhibition at 50 µM (SARS-CoV-2 nsp3-mac1 [1]; [10]): -0.675%; inhibition at 100 µM (SARS-CoV-2 nsp3-mac1 [1]; [10]): -1.62%
Cc1nc(NC(=O)c2ccnn2C(C)C)c2cc[nH]c2n1 [ASAP-0000268] | -2.642% | -4.346% | – | – | inhibition at 50 µM (SARS-CoV-2 nsp3-mac1 [1]; [11]): -2.64%; inhibition at 100 µM (SARS-CoV-2 nsp3-mac1 [1]; [11]): -4.35%
COC(=O)[C@]1(F)CCN(C(=O)c2ccc(NC(=O)Nc3ccccc3)cc2)C1 [ASAP-0000276] | – | – | -0.893% | 0.834% | inhibition at 49.75 µM (SARS-CoV-2 nsp3-mac1 [1]; [12]): -0.893%; inhibition at 99.5 µM (SARS-CoV-2 nsp3-mac1 [1]; [12]): 0.834%
CN(Cc1cn(C)nn1)C(=O)c1cnn2ccc(C3CCN(C(=O)c4ccccc4)CC3)cc12 [ASAP-0000277] | – | – | 2.174% | 1.337% | inhibition at 49.75 µM (SARS-CoV-2 nsp3-mac1 [1]; [13]): 2.17%; inhibition at 99.5 µM (SARS-CoV-2 nsp3-mac1 [1]; [13]): 1.34%
Cc1ncc(NCc2csc(-c3ccccn3)n2)cn1 [ASAP-0000278] | – | – | -5.23% | -4.487% | inhibition at 49.75 µM (SARS-CoV-2 nsp3-mac1 [1]; [14]): -5.23%; inhibition at 99.5 µM (SARS-CoV-2 nsp3-mac1 [1]; [14]): -4.49%
FC(F)(F)c1nnc2n1CCN(c1ncnc3[nH]ccc13)C2 [ASAP-0000279] | – | – | -1.969% | -1.005% | inhibition at 49.75 µM (SARS-CoV-2 nsp3-mac1 [1]; [15]): -1.97%; inhibition at 99.5 µM (SARS-CoV-2 nsp3-mac1 [1]; [15]): -1%
O=C(c1ccccc1)N1CCC(c2ccn3ncc(C(=O)N4CCc5nc[nH]c5C4)c3c2)CC1 [ASAP-0000280] | – | – | 11.216% | 20.268% | inhibition at 49.75 µM (SARS-CoV-2 nsp3-mac1 [1]; [16]): 11.2%; inhibition at 99.5 µM (SARS-CoV-2 nsp3-mac1 [1]; [16]): 20.3%
Cc1c(-c2cnc3nc[nH]c(=O)c3c2)ccc2[nH]ncc12 [ASAP-0000281] | – | – | -3.121% | -4.364% | inhibition at 49.75 µM (SARS-CoV-2 nsp3-mac1 [1]; [17]): -3.12%; inhibition at 99.5 µM (SARS-CoV-2 nsp3-mac1 [1]; [17]): -4.36%
O=C(NC1CCC(F)(F)CC1)c1ncnc2[nH]ccc12 [ASAP-0000282] | – | – | -3.47% | -5.78% | inhibition at 49.75 µM (SARS-CoV-2 nsp3-mac1 [1]; [18]): -3.47%; inhibition at 99.5 µM (SARS-CoV-2 nsp3-mac1 [1]; [18]): -5.78%
Cc1n[nH]nc1C(=O)N1CCC(c2ccn3ncc(C(=O)N4CCCCC4)c3c2)CC1 [ASAP-0000283] | – | – | 29.33% | 45.786% | inhibition at 49.75 µM (SARS-CoV-2 nsp3-mac1 [1]; [19]): 29.3%; inhibition at 99.5 µM (SARS-CoV-2 nsp3-mac1 [1]; [19]): 45.8%
Cc1nc(C(=O)N2CCC(c3ccn4ncc(C(=O)N5CCCCC5)c4c3)CC2)c(=O)[nH]c1C [ASAP-0000284] | – | – | 26.409% | 44.216% | inhibition at 49.75 µM (SARS-CoV-2 nsp3-mac1 [1]; [20]): 26.4%; inhibition at 99.5 µM (SARS-CoV-2 nsp3-mac1 [1]; [20]): 44.2%

From paper doi:10.1101/2024.08.19.608619, “Discovery of potent SARS-CoV-2 nsp3 macrodomain inhibitors uncovers lack of translation to cellular antiviral response” (bioRxiv, 2024)
